Legend:
Assay type in all cases: cell-based
human P2X4 [1] = target: T1, human P2X4 (Homo sapiens, UniProt Q99571); assay: FLIPR assay, human P2X4 1321N1 Astrocytoma Cells; design: expressed in transfected cells; details: agonist Mg-ATP at EC80
T1 sequence (Q99571 1-388): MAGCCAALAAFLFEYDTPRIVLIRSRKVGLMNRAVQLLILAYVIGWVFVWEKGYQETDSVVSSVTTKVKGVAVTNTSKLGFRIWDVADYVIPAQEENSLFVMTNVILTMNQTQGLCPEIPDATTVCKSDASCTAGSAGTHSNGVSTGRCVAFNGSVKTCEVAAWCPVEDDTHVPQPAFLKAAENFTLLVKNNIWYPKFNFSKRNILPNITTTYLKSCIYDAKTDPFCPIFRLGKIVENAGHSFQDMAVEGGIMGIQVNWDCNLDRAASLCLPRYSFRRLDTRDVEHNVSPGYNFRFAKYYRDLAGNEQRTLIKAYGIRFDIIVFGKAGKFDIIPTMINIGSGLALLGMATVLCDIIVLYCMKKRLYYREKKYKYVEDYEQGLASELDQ
Experimental: (§1) 1321N1 Astrocytoma cells stably expressing human P2X4 or rat P2X4 or mouse P2X4 were plated in Collagen ITO-treated microplate at a seeding density of 10000 cells/well and incubated overnight. P2X4 function was assessed by measuring intracellular calcium changes using the calcium-chelating dye Fluo8-AM (Molecular Devices) on a fluorescent imaging plate reader (FLEX/FLIPR station; Molecular Devices). On the day of the assay, the medium was removed and the cells were incubated for 30 min at […] and 5% CO2 in 30 μL of dye buffer (Hank's balanced salt solution, 10 mM HEPES, 1.8 mM CaCl2, 1 mM MgCl2, 2 mM probenecid, 5 mM D-glucose monohydrate, 5 μM Fluo8-AM, pH=7.4). Compounds diluted in probenecid buffer (Hank's balanced salt solution, 10 mM HEPES, 1.8 mM CaCl2, 1 mM MgCl2, 2 mM probenecid, 5 mM D-glucose monohydrate, pH=7.4) were added in a volume of 10 μL and allowed to incubate for 30 min at room temperature. The final assay DMSO concentration was 0.25%. The agonist, Mg-ATP (Sigma), was added in a volume of 10 μL at a concentration representing the EC80 value. EC80 was determined to be 0.5 μM for human and mouse P2X4 and 5 μM for rat P2X4. The fluorescence was measured for an interval of 120 sec at 2 sec intervals. The excitation and emission wavelengths used to monitor fluorescence were 470-495 nm and 515-575 nm, respectively. The data was analyzed based on the increase in peak relative fluorescence units (RFU) compared to the basal fluorescence and the data was normalized to the agonist control. The compounds were tested in triplicates per plate and mean values were plotted in Excel XLFit to determine IC50 values, percentage of maximal inhibition and the Hill coefficients.

rat P2X4 = target: T2, rat P2X4 (Rattus norvegicus, UniProt P51577); assay: FLIPR assay, rat P2X4 1321N1 Astrocytoma Cells; details: agonist Mg-ATP at EC80
T2 construct: expressed in transfected cells; host or cells: 1321N1 astrocytoma cells
T2 sequence (P51577 1-388): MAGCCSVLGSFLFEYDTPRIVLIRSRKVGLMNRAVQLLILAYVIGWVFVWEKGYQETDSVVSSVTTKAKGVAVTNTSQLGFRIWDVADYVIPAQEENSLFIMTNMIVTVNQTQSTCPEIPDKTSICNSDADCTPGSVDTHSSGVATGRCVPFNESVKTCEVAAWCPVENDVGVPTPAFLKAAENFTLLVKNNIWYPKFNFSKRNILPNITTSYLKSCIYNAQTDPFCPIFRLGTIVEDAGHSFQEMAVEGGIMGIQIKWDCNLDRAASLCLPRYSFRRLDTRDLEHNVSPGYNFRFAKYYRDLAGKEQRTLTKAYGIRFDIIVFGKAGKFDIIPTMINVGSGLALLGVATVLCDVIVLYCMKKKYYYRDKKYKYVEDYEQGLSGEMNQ
Experimental: as §1

human P2X4 [2] = target: T1, human P2X4; assay: Human P2X4 HEK Cell Electrophysiology Assay A (PatchLiner); design: expressed in transfected cells; host or cells: HEK293; details: ATP 5 μM, -80 mV; read-out: Human P2X4 HEK Cells (PatchLiner Electrophysiology) avg IC50
Experimental: HEK293 cells stably expressing human P2X4 were seeded in T75 cell culturing flasks at a density of 7*106 cells and incubated overnight. P2X4 function was assayed using the automated patch clamp platform PatchLiner (Nanion) in single hole mode. Composition of extracellular buffer was (in mM) NaCl 145, KCl 4, HEPES 10, CaCl2) 1, MgCl2 0.5, D-glucose monohydrate 10, pH=7.4. The intracellular buffer contained (in mM): CsF 135, EGTA 1, HEPES 10, NaCl 10, pH 7.2. On the day of the assay, cells were harvested using Accumax (Sigma) and were resuspended in extracellular buffer. The ligand agonist, adenosine 5′-trisphosphate (ATP, 5 μM) was added in a volume of 5 μL, directly washed off by extracellular buffer (40 μL). The cells were voltage clamped at −80 mV and ligand was applied every 5 min. for 20 min. Over this period the agonist response was stable and compounds were measured in single concentration per well mode. Compounds diluted in extracellular buffer (final assay DMSO concentration 0.3%) were added in a volume of 40 μL and allowed to incubate for 8 min at room temperature. The data was analyzed based on the decrease in peak current amplitude and normalized to the agonist control. Mean values were plotted in Excel XLFit to determine IC50 values, percentage of maximal inhibition and the Hill coefficients.

SMILES	Human P2X4 1321N1 Astrocytoma Cells (FLIPR Assay) avg Efficacy (human P2X4 [1])	IC50 (human P2X4 [1])	IC50 (rat P2X4)	Rat P2X4 1321N1 Astrocytoma Cells (FLIPR Assay) avg Efficacy (rat P2X4)	IC50 (human P2X4 [2])
NS(=O)(=O)c1cc(NC(=O)Cc2ccccc2Cl)ccc1-n1cc(C(F)(F)F)cn1 [Example 19, 2-(2-Chlorophenyl)-N-{3-sulfamoyl-4-[4-(trifluoromethyl)-1H-pyrazol-1-yl]phenyl}acetamide]	60%	57 nM	71 nM	57%	111 nM
N#Cc1cnn(-c2ccc(NC(=O)Cc3ccccc3Cl)cc2S(N)(=O)=O)c1 [Example 39, 2-(2-Chlorophenyl)-N-[4-(4-cyano-1H-pyrazol-1-yl)-3-sulfamoylphenyl]acetamide]	83%	64 nM	308 nM	87%	138 nM
NS(=O)(=O)c1cc(NC(=O)Cc2ccccc2Cl)ccc1-c1cnn(C(F)F)c1 [Example 326, 2-(2-Chlorophenyl)-N-{4-[1-(difluoromethyl)-1H-pyrazol-4-yl]-3-sulfamoylphenyl}acetamide]	80%	46 nM	325 nM	99%	57 nM
NS(=O)(=O)c1cc(NC(=O)Cc2ccccc2Cl)cnc1-n1cc(C(F)(F)F)cn1 [Example 380, 2-(2-Chlorophenyl)-N-{5-sulfamoyl-6-[4-(trifluoromethyl)-1H-pyrazol-1-yl]pyridin-3-yl}acetamide]	–	–	–	–	320 nM
